Measured values taken from article PMC10532587, “An Investigation of Structure–Activity Relationships and Cell Death Mechanisms of the Marine Alkaloids Discorhabdins in Merkel Cell Carcinoma Cells” (Marine Drugs, 2023).
Like-named read-outs stand apart in the source and are kept apart here.

What was measured:
HaCaT = assay: Cell survival by CellTiterGlo, control cells; type: cell-based, human; conditions: for IC50: Homo sapiens, HaCaT; for AUC (arbitrary units) HaCaT: area under the dose-response curve, control cells
MCC13 = assay: Cell survival by CellTiterGlo, VN-MCC line MCC13; type: cell-based; conditions: for IC50: CellTiterGlo, normalized to DMSO; for AUC (arbitrary units) MCC13: area under the dose-response curve
MCC26 = assay: Cell survival by CellTiterGlo, VN-MCC line MCC26; type: cell-based; conditions: for IC50: CellTiterGlo, normalized to DMSO; for AUC (arbitrary units) MCC26: area under the dose-response curve
UISO = assay: Cell survival by CellTiterGlo, VN-MCC line UISO; type: cell-based; conditions: for IC50: CellTiterGlo, normalized to DMSO; for AUC (arbitrary units) UISO: area under the dose-response curve
MKL-1 = assay: Cell survival by CellTiterGlo, VP-MCC line MKL-1; type: cell-based; conditions: VP-MCC; for IC50: MKL-1, CellTiterGlo, normalized to DMSO, read-out: IC50 (nM) MKL-1; for AUC (arbitrary units) MKL-1: area under the dose-response curve
MKL-2 = assay: Cell survival by CellTiterGlo, VP-MCC line MKL-2; type: cell-based; conditions: for IC50: CellTiterGlo, normalized to DMSO; for AUC (arbitrary units) MKL-2: area under the dose-response curve
Waga = assay: Cell survival by CellTiterGlo, VP-MCC line Waga; type: cell-based; conditions: for IC50: CellTiterGlo, normalized to DMSO; for AUC (arbitrary units) WaGa: area under the dose-response curve
[1] = test system: control (HaCaT) and Merkel cell carcinoma cell lines; assay: Cell survival by CellTiterGlo, all seven cell lines; type: cell-based; conditions: MCC and control cell lines
Procedure: (§1) Three methods were employed for assessment of MCC and control cell survival/viability after discorhabdin treatment, two metabolic assays and a cell permeability assay. For all three methods, cells were plated in 384-well plates at 2500 cells/well and treated with various concentrations of discorhabdins for various time periods. CellTiterGlo^TM (Promega, Madison, WI, USA) measures cellular ATP content and was used to estimate potency of discorhabdins in cell viability assays as previously described. Continuous monitoring of metabolic activity was accomplished using a cellular reducing potential luminescence assay, the RealTime-Glo^TM MT Cell Viability Assay (Promega, Madison, WI, USA) according to manufacturer’s instructions. Loss of cell plasma membrane integrity was assessed using a cell-impermeant molecule that becomes fluorescent upon binding DNA [82] in parallel with apoptosis detection per manufacturer’s instructions (RealTimeGlo^TM Annexin V Apoptosis and Necrosis Assay-Promega). Two additional assays of apoptotic cell death were also used. Caspase activation in response to treatment of MCC cells by discorhabdins or bortezomib (as a positive control) was measured using the CaspaseGlo® 3/7 Assay (Promega, Madison, WI, USA) according to the manufacturer’s instructions at multiple time points. Inhibition of apoptotic cell death was investigated using pre-treatment of cells with for 1 h with the pan-caspase inhibitor Z-VAD-FMK (Enzo Life Sciences, Farmingdale, NY, USA) followed by treatment with discorhabdins or bortezomib and estimation of cell viability as outlined above.
(§2) In order to compare responses among all of the discorhabdins and cell lines (98 combinations), dose–response curves were generated using identical discorhabdin dilution series. GraphPad Prism 8 (San Diego, CA, USA) software was utilized to graph dose–response data and to calculate IC50 values and area under the dose–response curves (AUC) along with 95% confidence interval estimates using four-parameter logistic nonlinear regression analysis. For further analysis and comparisons, AUC for each cell line/discorhabdin pair was visualized in a heatmap generated in R version 1.3.1073 (R Core Team (2013). R: A language and environment for statistical computing. R Foundation for Statistical Computing, Vienna, Austria, http://www.R-project.org/ (accessed on 12 January 2023).
Figure S39: Activity of discorhabdins against M CC cell lines.
The indicated discorh abd ins were ass essed for th eir ability to affect surviv al of control (H aCaT) and Merkel cell carcino ma cell lines (VN-MCC: MCC13, MCC26, UISO and VP -MCC: MKL-1, MKL-2, Wag a). Cells were plat ed at 2500 cells/well and compounds the next day. Cell survival was estimated by CellTiterGlo (normalized to untreated (DMSO) cells on the same plate). Structures w ere o btained from the supplier and/or the PubChem database or as described in the text. Number in bold in ( ) refers to structures in Figure 1 in the text. Curves were plotted and IC50 values and 95% confidence interval calculated by GraphPad software. […]

MCC cell lines = assay: Cell survival by CellTiterGlo, MCC cell lines together; type: cell-based; conditions: for averaged potency (IC50) across all MCC cell lines tested: average over MCC cell lines
Procedure: as §1, §2

[2] = test system: VP-MCC cell lines (MKL-1, MKL-2, and Waga); assay: Selectivity VP-MCC versus control cells (average AUC); type: cell-based
Excerpt: as §2
Figure S41: Discorhabdi nselectivity
Discorhabdin selectivity for VP -MCC and VN- MCCcells was estimated by comparison of activity (average AUC) for each dis corhabdin against VP -MCC (panel A) or VN- MCC (panel B) cell lines compared to control cells . Discorhabdins were sort ed by selectivity from most to least selective. - fold dif fer ence = (av e VN -MCC or VP -MCC AUC/ control AUC). Error bars […]
(1 picture or pasted object on this page, not shown here)

caspase-3/7 [3] = assay: Caspase-3/7 activation (CaspaseGlo 3/7) in UISO cells; type: cell-based; conditions: 8 or 24 h; normalized to DMSO control
Procedure: (§3) (a) Caspase activation. Cells were treated for 8 or 24 h with indicated discorhabdins or bortezomib. Caspase-3/7 activity was determined (Promega CaspaseGLO-3/7) and normalized to untreated (DMSO) control cells. Error bars represent sd (n = 4). (b). Apoptosis/necrosis. Cells were treated for up to 24 h with the indicated discorhabdins and assessed for Annexin binding and cell permeability using the Promega RealTime-Glo™ Annexin V Apoptosis and Necrosis Assay kit. Luminescence indicates Annexin binding, fluorescence indicates membrane permeability.
as §1, with “Inhibition of apoptotic cell death was investigated using pre-treatment of cells with for 1 h with the pan-caspase inhibitor Z-VAD-FMK (Enzo Life Sciences, Farmingdale, NY, USA) followed by treatment with discorhabdins or bortezomib and estimation of cell viability as outlined above.” left out

caspase-3/7 [4] = assay: Caspase-3/7 activation (CaspaseGlo 3/7) in MKL-1 cells; type: cell-based; conditions: 8 or 24 h; normalized to DMSO control
Procedure: as §3
as §1, with “Inhibition of apoptotic cell death was investigated using pre-treatment of cells with for 1 h with the pan-caspase inhibitor Z-VAD-FMK (Enzo Life Sciences, Farmingdale, NY, USA) followed by treatment with discorhabdins or bortezomib and estimation of cell viability as outlined above.” left out

UISO cells = assay: Mitochondrial membrane potential (JC-10) in UISO cells; type: cell-based; conditions: 10 µM, normalized to DMSO control
Procedure: (§4) Cells were treated with the indicated discorhabdins (10 µM) and assessed for mitochondrial membrane potential (MMP) using JC-10 ratiometric dye. JC-10 was added for the last hour of incubation. Cellular reducing potential was assessed using a RealTimeGlo MT Cell Viability kit, and cellular ATP levels using CellTiterGlo. All values were normalized to DMSO control. Error bars (n = 3–4) represent sd. See Figures S45 and S46 for additional cell line/discorhabdin combinations, concentrations, and time points for reducing potential and MMP, respectively.
(§5) Mitochondrial membrane potential (MMP) was assessed using the JC-10 ratiometric dye (Sigma, St. Louis, MO, USA). UISO or MKL-1 cells were treated in black-walled, clear-bottom 384-well plates (Corning Life Sciences, Durham, NC, USA) with discorhabdins or doxorubicin (Sigma, St. Louis, MO, USA) as a positive control for up to 24 h with JC-10 for the last 1 h of incubation. Red/green fluorescence signals were measured, the red/green ratio for each well was calculated and normalized to untreated (DMSO) control wells for the same cell line and incubation time to determine relative MMP.

MKL-1 cells = assay: Mitochondrial membrane potential (JC-10) in MKL-1 cells; type: cell-based; conditions: 10 µM, normalized to DMSO control
Procedure: as §4, §5

MCC cells [5] = assay: Cellular reducing potential (RealTime-Glo MT Cell Viability); type: cell-based; conditions: 10 µM; normalized to DMSO control
Procedure: as §4
(§6) Three methods were employed for assessment of MCC and control cell survival/viability after discorhabdin treatment, two metabolic assays and a cell permeability assay. For all three methods, cells were plated in 384-well plates at 2500 cells/well and treated with various concentrations of discorhabdins for various time periods. […] Continuous monitoring of metabolic activity was accomplished using a cellular reducing potential luminescence assay, the RealTime-Glo^TM MT Cell Viability Assay (Promega, Madison, WI, USA) according to manufacturer’s instructions. Loss of cell plasma membrane integrity was assessed using a cell-impermeant molecule that becomes fluorescent upon binding DNA [82] in parallel with apoptosis detection per manufacturer’s instructions (RealTimeGlo^TM Annexin V Apoptosis and Necrosis Assay-Promega). […]

MCC cells [6] = assay: Cellular ATP content (CellTiterGlo), time course; type: cell-based; conditions: 10 µM, normalized to DMSO control
Procedure: as §4, §6

[7] = prostate cancer xenograft model; cited from earlier work
MCC cells [8] = assay: Cell death after pretreatment with pan-caspase inhibitor Z-VAD-FMK; type: cell-based; conditions: Z-VAD-FMK 40 µM, 1 h pretreatment; discorhabdins 10 µM, bortezomib 1 µM
Procedure: as §1, with “Inhibition of apoptotic cell death was investigated using pre-treatment of cells with for 1 h with the pan-caspase inhibitor Z-VAD-FMK (Enzo Life Sciences, Farmingdale, NY, USA) followed by treatment with discorhabdins or bortezomib and estimation of cell viability as outlined above.” left out

caspase-3 = test system: caspase-3; set-up: method as in PMID 9917313; conditions: cited from earlier work
[9] = control skin cell line, CellTiterGlo, normalized to DMSO, read-out: IC50 (nM) HaCaT

Row | SMILES | IC50 (HaCaT; [9]) | AUC (arbitrary units) HaCaT (HaCaT) | IC50 (MCC13) | AUC (arbitrary units) MCC13 (MCC13) | IC50 (MCC26) | AUC (arbitrary units) MCC26 (MCC26) | IC50 (UISO) | AUC (arbitrary units) UISO (UISO) | IC50 (MKL-1) | AUC (arbitrary units) MKL-1 (MKL-1) | IC50 (MKL-2) | AUC (arbitrary units) MKL-2 (MKL-2) | IC50 (Waga) | AUC (arbitrary units) WaGa (Waga) | activity on cell viability, in words [1] | averaged potency (IC50) across all MCC cell lines tested (MCC cell lines) | increased activity against VP-MCC compared to the control [2] | caspase-3/7 activation, UISO (caspase-3/7 [3]) | caspase-3/7 activation, MKL-1 (caspase-3/7 [4]) | mitochondrial membrane potential (MMP), UISO (UISO cells) | also measured
1 | O=C1C=C2S[C@H]3C[C@]2(C=C1Br)C1=C(N3)C(=O)c2[nH]cc3c2C1=NCC3 [Compound 2, (+)-(6S,8S) discorhabdin B] | 1040 nM | 133.9 arbitrary units | 426 nM | 51.68 arbitrary units | 731 nM | 83.94 arbitrary units | 331 nM | 39.51 arbitrary units | 25 nM | 3.635 arbitrary units | 90 nM | 14.49 arbitrary units | 75 nM | 9.624 arbitrary units | comparable activity against MCC and control cell lines | sub-micromolar | > 10 fold | lack of caspase-3/7 activation | lack of caspase-3/7 activation | significantly reduced | IC50 (HaCaT; read-out: IC50 for control cells): ≤ 1000 nM; fold more active than discorhabdin Q (3) against MCC cells (MCC cell lines; comparator discorhabdin Q (3)): > 10 fold; fold more active against MCC cells compared to 3 (MCC cell lines; comparator printed as 3, sentence is about discorhabdin G*/I (4)): 3 fold; mitochondrial membrane potential (MMP), MKL-1 (MKL-1 cells): significantly reduced; cellular reducing potential (MCC cells [5]): dropped significantly; cellular ATP content (MCC cells [6]): loss of cellular ATP content was dramatic and rapid
2 | O=C1C2=C3C4=[N+](CCc5c[nH]c1c54)[C@@H]1C(=O)C=C4S[C@@H](C[C@@]43[C@H]1O)N2 [Compound 12, (−)-(1R,2S,6R,8S) discorhabdin L] | 2550 nM | 290.4 arbitrary units | 466 nM | 93.66 arbitrary units | 1130 nM | 140.6 arbitrary units | 660 nM | 103 arbitrary units | 83 nM | 13.23 arbitrary units | 245 nM | 50.71 arbitrary units | 440 nM | 55.36 arbitrary units | – | sub-micromolar | – | lack of caspase-3/7 activation | lack of caspase-3/7 activation | significantly reduced | mitochondrial membrane potential (MMP), MKL-1 (MKL-1 cells): significantly reduced; cellular reducing potential (MCC cells [5]): dropped significantly; cellular ATP content (MCC cells [6]): loss of cellular ATP content was dramatic and rapid; in vivo toxicity in animals [7]: minimal in vivo toxicity
3 | CC(C)C[C@H](NC(=O)[C@H](Cc1ccccc1)NC(=O)c1cnccn1)B(O)O [bortezomib, reference compound] | – | – | – | – | – | – | – | – | – | – | – | – | – | – | – | – | – | robustly activates caspase | robustly activates caspase | – | effect of Z-VAD-FMK pretreatment on induced MCC cell death (MCC cells [8]): reduced bortezomib-induced
4 | Cn1cc2c3c1C(=O)C1=C(C3=NCC2)C2(C=C(Br)C(=O)C(Br)=C2)CCN1 [Compound 17, discorhabdin P] | 1260 nM | 150.9 arbitrary units | 499 nM | 64.76 arbitrary units | 1210 nM | 140.1 arbitrary units | 292 nM | 50.65 arbitrary units | 68 nM | 7.146 arbitrary units | 87 nM | 17.05 arbitrary units | 106 nM | 14.11 arbitrary units | more potent than discorhabdin C in all seven cell lines | sub-micromolar | > 10 fold | – | – | – | caspase-3 inhibition (caspase-3): reported to inhibit caspase-3
